Measured values taken from paper PMC6980656 (Cell chemical biology, 2019).

Assays:
Wee1 [1] = molecular target: T1, Wee1 (Homo sapiens, UniProt P30291); assay: Immunoblot of Wee1 degradation in parental MOLT4 cells; format: cell-based
[2] = test system: phosphorylation of CDK1 at Tyr15 (pCDK1 Y15); assay: Immunoblot of pCDK1 Y15 in parental MOLT4 cells; format: cell-based
Wee1 [3] = molecular target: T1, Wee1; assay: KINOMEscan profiling; format: binding; conditions: 1 μM
PLK1 [4] = molecular target: T2, PLK1 (Homo sapiens, UniProt P53350); assay: KINOMEscan profiling; format: binding; conditions: 1 μM
[5] = test system: pCDK1 Y15, PARP cleavage, γH2Ax; assay: Immunoblot of downstream markers; format: cell-based; conditions: MOLT4 cells; for downstream changes (pCDK1 Y15, PARP cleavage, γH2Ax): 100 nM
MOLT4 cells [6] = assay: Cell cycle analysis by propidium iodide staining, parental MOLT4; format: cell-based; conditions: PI staining; for effect on cell cycle (G2/M proportion): 100 nM
[7] = test system: MCF10A non-transformed mammary epithelial cell line; assay: Image-based cell cycle assay in MCF10A
MOLT4 cells [8] = assay: CellTiter-Glo cell viability, parental MOLT4; format: cell-based; conditions: for IC50: Homo sapiens, MOLT-4, 72 h, read-out: IC50, antiproliferative activity
OVCAR8 cells = assay: Synergy co-treatment, CellTiter-Glo in OVCAR8 cells; format: cell-based; conditions: for synergy with Olaparib: 72 hr co-treatment
Wee1 [9] = molecular target: T1, Wee1; assay: LanthaScreen FRET-based assay; format: binding; conditions: for engagement of recombinant Wee1: LanthaScreen, Table S1
[10] = test system: 300 suspension and hematopoietic cancer cell lines; assay: PRISM pooled cytotoxicity assay; format: cell-based
Wee1 [11] = molecular target: T1, Wee1; assay: Immunoblot of Wee1 degradation in CRBN−/− MOLT4 cells; format: cell-based; conditions: 5 hrs
[12] = test system: phosphorylation of CDK1 at Tyr15 (pCDK1 Y15); assay: Immunoblot of pCDK1 Y15 in CRBN−/− MOLT4 cells; format: cell-based; conditions: 5 hrs
PLK1 [13] = molecular target: T2, PLK1; assay: PLK1 abundance by proteomics and immunoblot in MOLT4 cells; format: cell-based; conditions: proteomics (100 nM, 2 hrs) or immunoblot
ZFP91 = ZFP91 (Homo sapiens, UniProt Q96JP5+Q96SW2); assay: ZFP91 abundance by proteomics in MOLT4 cells; format: cell-based; conditions: 100 nM, 2 hrs
Ikaros (IKZF1) = Ikaros (IKZF1) (Homo sapiens, UniProt Q13422+Q96SW2); assay: IKZF1 degradation, proteomics/immunoblotting; format: cell-based
Aiolos (IKZF3) = Aiolos (IKZF3) (Homo sapiens, UniProt Q96SW2+Q9UKT9); assay: IKZF3 degradation, proteomics/immunoblotting; format: cell-based
CRBN−/− MOLT4 cells = assay: Cell cycle analysis by propidium iodide staining, CRBN−/− MOLT4; format: cell-based; conditions: 100 nM, 24 hrs
[14] = test system: BT549, HCC1806, COV362, Kuramochi, OVCAR8 cell lines; assay: Image-based cell cycle assay in TNBC and ovarian cancer cell lines
MOLT4 CRBN−/− cells = assay: CellTiter-Glo cell viability, CRBN−/− MOLT4; format: cell-based; conditions: 72 hrs
[15] = test system: OVCAR8, COV283, and Kuramochi ovarian cancer cell lines; assay: Viability in ovarian cancer cell line panel; format: cell-based
[16] = test system: OCE1 non-malignant ovarian line; assay: Viability in non-malignant ovarian line; format: cell-based
Wee1 [17] = molecular target: T1, Wee1; assay: Wee1 degradation in OVCAR8 cells; format: cell-based
[18] = MOLT4 cells, 2 hrs pretreatment then 5 hrs co-treatment
[19] = 24 hr treatment, immunoblotting

T1 sequence (P30291 whole entry): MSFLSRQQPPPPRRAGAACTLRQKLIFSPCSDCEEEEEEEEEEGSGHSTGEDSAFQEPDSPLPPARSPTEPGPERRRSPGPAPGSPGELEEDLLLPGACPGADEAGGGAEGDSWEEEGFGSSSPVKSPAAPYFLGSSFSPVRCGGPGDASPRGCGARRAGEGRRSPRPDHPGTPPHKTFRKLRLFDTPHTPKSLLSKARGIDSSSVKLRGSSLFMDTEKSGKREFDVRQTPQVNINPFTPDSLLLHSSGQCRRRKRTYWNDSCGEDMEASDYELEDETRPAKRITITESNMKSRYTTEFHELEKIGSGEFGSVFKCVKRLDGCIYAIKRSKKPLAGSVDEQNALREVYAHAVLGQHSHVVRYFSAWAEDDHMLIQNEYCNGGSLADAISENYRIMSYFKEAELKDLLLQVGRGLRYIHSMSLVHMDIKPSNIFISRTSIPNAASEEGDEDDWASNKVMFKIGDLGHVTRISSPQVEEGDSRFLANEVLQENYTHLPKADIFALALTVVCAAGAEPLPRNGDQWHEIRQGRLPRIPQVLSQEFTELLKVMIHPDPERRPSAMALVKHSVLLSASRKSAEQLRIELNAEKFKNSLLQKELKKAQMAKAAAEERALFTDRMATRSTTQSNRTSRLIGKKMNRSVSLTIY
T2 sequence (P53350 whole entry): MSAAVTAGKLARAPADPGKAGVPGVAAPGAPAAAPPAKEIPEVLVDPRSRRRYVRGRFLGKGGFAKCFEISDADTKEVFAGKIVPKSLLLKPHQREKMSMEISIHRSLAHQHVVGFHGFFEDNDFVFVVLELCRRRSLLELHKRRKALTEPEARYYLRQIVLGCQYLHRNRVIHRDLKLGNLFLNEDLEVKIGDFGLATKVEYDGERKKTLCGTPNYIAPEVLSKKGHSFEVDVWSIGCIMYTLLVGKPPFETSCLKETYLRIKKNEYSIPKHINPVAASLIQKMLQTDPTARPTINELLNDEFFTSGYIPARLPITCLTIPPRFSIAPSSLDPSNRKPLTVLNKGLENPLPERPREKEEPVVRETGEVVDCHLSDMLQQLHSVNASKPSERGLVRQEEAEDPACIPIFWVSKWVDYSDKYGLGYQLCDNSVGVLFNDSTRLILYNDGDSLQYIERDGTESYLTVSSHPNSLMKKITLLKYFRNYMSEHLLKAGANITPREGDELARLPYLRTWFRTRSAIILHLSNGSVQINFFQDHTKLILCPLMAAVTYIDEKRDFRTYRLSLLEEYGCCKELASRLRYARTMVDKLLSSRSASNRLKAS
Chain of Aiolos (IKZF3) (Q9UKT9 whole entry): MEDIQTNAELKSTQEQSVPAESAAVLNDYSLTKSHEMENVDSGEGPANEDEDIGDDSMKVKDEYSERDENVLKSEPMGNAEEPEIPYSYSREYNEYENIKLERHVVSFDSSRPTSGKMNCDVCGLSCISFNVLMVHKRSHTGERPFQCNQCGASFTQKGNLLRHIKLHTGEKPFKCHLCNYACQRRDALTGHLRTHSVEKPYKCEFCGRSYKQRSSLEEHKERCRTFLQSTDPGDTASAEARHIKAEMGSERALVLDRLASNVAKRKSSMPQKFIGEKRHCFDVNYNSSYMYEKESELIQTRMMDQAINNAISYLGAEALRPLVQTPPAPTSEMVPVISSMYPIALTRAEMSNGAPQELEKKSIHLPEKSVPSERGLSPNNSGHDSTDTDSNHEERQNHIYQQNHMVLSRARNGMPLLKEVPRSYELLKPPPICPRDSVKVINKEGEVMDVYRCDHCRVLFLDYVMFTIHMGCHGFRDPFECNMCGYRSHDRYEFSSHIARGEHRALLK
Chain of Aiolos (IKZF3) (Q96SW2 whole entry): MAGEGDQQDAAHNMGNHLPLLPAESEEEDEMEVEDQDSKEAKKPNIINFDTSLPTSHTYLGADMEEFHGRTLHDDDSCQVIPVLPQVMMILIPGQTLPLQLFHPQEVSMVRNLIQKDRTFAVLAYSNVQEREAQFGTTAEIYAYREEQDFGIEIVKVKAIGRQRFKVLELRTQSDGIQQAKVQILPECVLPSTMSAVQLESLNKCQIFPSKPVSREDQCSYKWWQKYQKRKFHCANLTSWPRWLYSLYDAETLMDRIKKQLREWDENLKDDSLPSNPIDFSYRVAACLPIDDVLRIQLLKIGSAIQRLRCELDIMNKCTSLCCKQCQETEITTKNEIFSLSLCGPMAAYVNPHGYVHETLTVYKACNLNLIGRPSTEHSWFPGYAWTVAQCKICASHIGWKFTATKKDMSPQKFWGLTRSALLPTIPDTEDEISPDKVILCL
Chain of Aiolos (IKZF3) (Q16531 whole entry partner): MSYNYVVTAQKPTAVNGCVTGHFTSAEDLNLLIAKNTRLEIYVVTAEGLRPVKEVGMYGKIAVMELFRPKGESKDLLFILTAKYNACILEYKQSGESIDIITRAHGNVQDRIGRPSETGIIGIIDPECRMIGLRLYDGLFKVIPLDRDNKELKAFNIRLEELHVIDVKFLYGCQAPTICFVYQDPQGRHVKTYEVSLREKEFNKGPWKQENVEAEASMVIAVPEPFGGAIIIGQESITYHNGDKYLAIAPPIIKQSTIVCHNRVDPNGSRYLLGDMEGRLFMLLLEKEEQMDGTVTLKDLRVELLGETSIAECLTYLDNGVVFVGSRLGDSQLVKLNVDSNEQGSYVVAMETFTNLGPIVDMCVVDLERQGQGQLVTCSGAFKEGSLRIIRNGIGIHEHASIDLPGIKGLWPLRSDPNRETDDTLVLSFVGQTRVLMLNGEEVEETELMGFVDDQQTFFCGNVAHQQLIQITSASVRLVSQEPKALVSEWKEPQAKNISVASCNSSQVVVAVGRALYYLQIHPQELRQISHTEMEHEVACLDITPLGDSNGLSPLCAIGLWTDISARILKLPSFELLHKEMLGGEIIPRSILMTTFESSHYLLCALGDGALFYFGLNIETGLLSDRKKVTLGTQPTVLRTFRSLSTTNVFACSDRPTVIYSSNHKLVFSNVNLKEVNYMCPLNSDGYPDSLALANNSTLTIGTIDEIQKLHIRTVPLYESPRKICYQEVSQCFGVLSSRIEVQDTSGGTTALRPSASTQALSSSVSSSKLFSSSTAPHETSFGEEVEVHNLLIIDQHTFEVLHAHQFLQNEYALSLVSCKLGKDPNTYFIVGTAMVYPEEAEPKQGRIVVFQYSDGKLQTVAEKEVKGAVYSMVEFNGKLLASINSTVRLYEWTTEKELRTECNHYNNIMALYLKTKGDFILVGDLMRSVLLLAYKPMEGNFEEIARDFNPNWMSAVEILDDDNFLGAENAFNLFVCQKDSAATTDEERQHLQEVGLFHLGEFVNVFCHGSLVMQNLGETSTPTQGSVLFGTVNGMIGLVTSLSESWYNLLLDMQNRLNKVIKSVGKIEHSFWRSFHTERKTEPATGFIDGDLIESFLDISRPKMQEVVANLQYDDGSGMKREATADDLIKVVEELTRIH
Chain of Ikaros (IKZF1) (Q13422 whole entry): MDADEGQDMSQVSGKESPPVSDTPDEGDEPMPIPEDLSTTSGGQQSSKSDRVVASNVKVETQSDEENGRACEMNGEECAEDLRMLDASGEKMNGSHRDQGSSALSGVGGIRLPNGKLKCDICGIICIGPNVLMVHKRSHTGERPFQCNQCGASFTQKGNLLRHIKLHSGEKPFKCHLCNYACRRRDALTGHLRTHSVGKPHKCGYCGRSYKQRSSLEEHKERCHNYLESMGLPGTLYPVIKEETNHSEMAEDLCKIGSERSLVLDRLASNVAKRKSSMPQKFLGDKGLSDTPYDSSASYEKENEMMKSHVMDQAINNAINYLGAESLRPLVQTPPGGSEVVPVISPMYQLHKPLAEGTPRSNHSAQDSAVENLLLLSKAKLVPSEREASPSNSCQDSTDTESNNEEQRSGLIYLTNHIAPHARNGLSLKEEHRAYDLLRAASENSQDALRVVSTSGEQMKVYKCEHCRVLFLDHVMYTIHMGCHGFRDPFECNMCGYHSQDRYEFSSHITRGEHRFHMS
Chain of Ikaros (IKZF1) (Q96SW2 whole entry): as the sequence (Q96SW2 whole entry) above
Chain of Ikaros (IKZF1) (Q16531 whole entry partner): as the sequence (Q16531 whole entry partner) above
Chain of ZFP91 (Q96JP5 whole entry): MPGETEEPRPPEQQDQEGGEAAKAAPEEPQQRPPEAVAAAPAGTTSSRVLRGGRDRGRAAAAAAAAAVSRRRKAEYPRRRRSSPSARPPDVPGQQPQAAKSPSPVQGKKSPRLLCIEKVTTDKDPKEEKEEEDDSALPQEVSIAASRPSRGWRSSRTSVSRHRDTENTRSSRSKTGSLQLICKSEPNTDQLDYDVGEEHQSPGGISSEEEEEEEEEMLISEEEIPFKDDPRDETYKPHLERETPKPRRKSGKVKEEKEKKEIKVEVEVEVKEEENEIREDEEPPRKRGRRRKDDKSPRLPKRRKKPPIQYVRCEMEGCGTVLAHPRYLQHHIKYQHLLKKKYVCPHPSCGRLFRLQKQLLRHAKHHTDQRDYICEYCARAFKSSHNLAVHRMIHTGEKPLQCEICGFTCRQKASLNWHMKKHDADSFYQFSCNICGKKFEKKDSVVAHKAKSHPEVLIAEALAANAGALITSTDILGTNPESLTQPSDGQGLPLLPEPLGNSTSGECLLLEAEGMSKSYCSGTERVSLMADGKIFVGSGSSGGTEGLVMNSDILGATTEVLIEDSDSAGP
Chain of ZFP91 (Q96SW2 whole entry): as the sequence (Q96SW2 whole entry) above
Chain of ZFP91 (Q16531 whole entry partner): as the sequence (Q16531 whole entry partner) above

C=CCn1c(=O)c2cnc(Nc3ccc(N4CCN(C)CC4)cc3)nc2n1-c1cccc(C(C)(C)O)n1 [AZD1775, reference compound]
Wee1 degradation (immunoblot, in words) (Wee1 [1]; MOLT4 cells, 5 hr treatment): insufficient to induce Wee1 degradation
effect on pCDK1 Y15 ([2]; MOLT4 cells, 1 μM pretreatment alone, independent of ZNL-02-096 co-treatment): decreased pCDK1 Y15
KINOMEscan engagement of Wee1 (Wee1 [3]): strong engagement
KINOMEscan engagement of PLK1 (PLK1 [4]): strong engagement
concentration necessary to produce the same downstream changes ([5]; 24 hr): 1 µM
downstream changes (pCDK1 Y15, PARP cleavage, γH2Ax) ([5]; 24 hr): did not produce these downstream changes
effect on cell cycle (G2/M proportion) (MOLT4 cells [6]): did not appreciably affect the cell cycle
dose needed to elicit the same cell cycle changes as 100 nM ZNL-02-096 (MOLT4 cells [6]): 1 µM
cell cycle changes [7]: neither ZNL-02-096 nor AZD1775 induced significant cell cycle changes
IC50 (MOLT4 cells [8]): 800 nM

Nc1cccc2c1C(=O)N(C1CCC(=O)NC1=O)C2=O (stereo not shown) [pomalidomide, reference compound]
Wee1 degradation (immunoblot, in words) (Wee1 [1]; MOLT4 cells, 5 hr treatment): insufficient to induce Wee1 degradation
effect on pCDK1 Y15, apoptosis, DNA damage ([5]; 24 hr, 1 μM): did not affect phosphorylation of CDK1 Y15, apoptosis, or levels of DNA damage
cytotoxicity (MOLT4 cells [8]; alone, Fig. S3): no detectable cytotoxicity
synergy with Olaparib (OVCAR8 cells): not synergistic
synergy with AZD1775 (OVCAR8 cells; co-treatment): not synergistic

C=CCn1c(=O)c2cnc(Nc3ccc(N4CCN(CCCCCCNc5cccc6c5C(=O)N(C5CCC(=O)NC5=O)C6=O)CC4)cc3)nc2n1-c1cccc(C(C)(C)O)n1 (stereo not shown) [ZNL-02-040, 4-((6-(4-(4-((2-Allyl-1-(6-(2-hydroxypropan-2-yl)pyridin-2-yl)-3-oxo-2,3-dihydro-1H-pyrazolo[3,4-d]pyrimidin-6-yl)amino)phenyl)piperazin-1-yl)hexyl)amino)-2-(2,6-dioxopiperidin-3-yl)isoindoline-1,3-dione]
engagement of recombinant Wee1 (Wee1 [9]): potently engaged recombinant Wee1
Wee1 degradation (immunoblot, in words) (Wee1 [1]; MOLT4 cells, 5 hr treatment): induced Wee1 degradation

C=CCn1c(=O)c2cnc(Nc3ccc(N4CCN(CCCNC(=O)CCOCCOCCNc5cccc6c5C(=O)N(C5CCC(=O)NC5=O)C6=O)CC4)cc3)nc2n1-c1cccc(C(C)(C)O)n1 (stereo not shown) [ZNL-02-012, N-(3-(4-(4-((2-allyl-1-(6-(2-hydroxypropan-2-yl)pyridin-2-yl)-3-oxo-2,3-dihydro-1H-pyrazolo[3,4-d]pyrimidin-6-yl)amino)phenyl)piperazin-1-yl)propyl)-3-(2-(2-((2-(2,6-dioxopiperidin-3-yl)-1,3-dioxoisoindolin-4-yl)amino)ethoxy)ethoxy)propenamide]
IC50 (Wee1 [9]): 1 to 10 nM
Wee1 degradation (immunoblot, in words) (Wee1 [1]; MOLT4 cells, 5 hr treatment): induced Wee1 degradation
concentration required to achieve maximal Wee1 degradation (Wee1 [1]; MOLT4 cells, 5 hr treatment): 1 µM

C=CCn1c(=O)c2cnc(Nc3ccc(N4CCN(CCCNc5cccc6c5C(=O)N(C5CCC(=O)N(C)C5=O)C6=O)CC4)cc3)nc2n1-c1cccc(C(C)(C)O)n1 (stereo not shown) [ZNL-02-178, 4-((3-(4-(4-((2-allyl-1-(6-(2-hydroxypropan-2-yl)pyridin-2-yl)-3-oxo-2,3-dihydro-1H-pyrazolo[3,4-d]pyrimidin-6-yl)amino)phenyl)piperazin-1-yl)propyl)amino)-2-(1-methyl-2,6-dioxopiperidin-3-yl)is oindoline-1,3-dione]
Wee1 degradation (immunoblot, in words) (Wee1 [1]; MOLT4 cells, 5 hr treatment): inhibits but does not degrade Wee1
effect on Wee1 protein levels (Wee1 [1]; MOLT4 cells, out to 48 hrs after treatment): no effect on Wee1 protein levels
downstream changes (pCDK1 Y15, PARP cleavage, γH2Ax) ([5]; 24 hr): did not produce these downstream changes
effect on cell cycle (G2/M proportion) (MOLT4 cells [6]): did not appreciably affect the cell cycle
potency in PRISM relative to ZNL-02-096 [10]: uniformly less potent
synergy with Olaparib (OVCAR8 cells): less synergistic activity with Olaparib than ZNL-02-096 at low doses

C=CCn1c(=O)c2cnc(Nc3ccc(N4CCN(CCCNc5cccc6c5C(=O)N(C5CCC(=O)NC5=O)C6=O)CC4)cc3)nc2n1-c1cccc(C(C)(C)O)n1 (stereo not shown) [ZNL-02-096, 4-((3-(4-(4-((2-Allyl-1-(6-(2-hydroxypropan-2-yl)pyridin-2-yl)-3-oxo-2,3-dihydro-1H-pyrazolo[3,4-d]pyrimidin-6-yl)amino)phenyl)piperazin-1-yl)propyl)amino)-2-(2,6-dioxopiperidin-3-yl)isoindoline-1,3-dione]
engagement of recombinant Wee1 (Wee1 [9]): potently engaged recombinant Wee1
time to complete Wee1 degradation (Wee1 [1]; MOLT4 cells, 100 nM): ≤ 3 h
Wee1 degradation (Wee1 [1]; MOLT4 cells, 100 nM, within 30 min): over 50%
Wee1 degradation by ZNL-02-096 after MLN4924 pretreatment (Wee1 [1]; [18]): prevented
Wee1 degradation by ZNL-02-096 after carfilzomib pretreatment (Wee1 [1]; [18]): rescued
Wee1 degradation by ZNL-02-096 after pretreatment with excess AZD1775 (Wee1 [1]; [18]): prevented ZNL-02-096-induced Wee1 degradation
Wee1 degradation by ZNL-02-096 after pretreatment with excess pomalidomide (Wee1 [1]; [18]): only partial rescue
Wee1 degradation (immunoblot, in words) (Wee1 [1]; MOLT4 cells, 5 hr treatment): degradation was most pronounced
duration of sustained Wee1 loss (Wee1 [1]; MOLT4 cells, single 100 nM treatment): at least 48 hrs
concentration of maximal Wee1 degradation (Wee1 [1]; parental MOLT4 cells, 5 hrs): 100 nM
concentration at which hook effect is apparent (Wee1 [1]; parental MOLT4 cells, 5 hrs, top concentration): 10 µM
effect on Wee1 abundance (Wee1 [11]): did not affect Wee1 abundance
dose from which pCDK1 Y15 is reduced ([2]; parental MOLT4 cells, 5 hrs): 100 nM
dose from which pCDK1 Y15 is decreased [12]: 1 μM
KINOMEscan engagement of Wee1 (Wee1 [3]): strong engagement
KINOMEscan engagement of PLK1 (PLK1 [4]): strong engagement
PLK1 downregulation (PLK1 [13]): No downregulation of PLK1
ZFP91 degradation (ZFP91): low levels of ZFP91 degradation
IKZF1 degradation (Ikaros (IKZF1); [19]): degradation of both IKZF1 and IKZF3 was apparent
IKZF1 degradation (Ikaros (IKZF1); short time points): no degradation of either IKZF1 or IKZF3
IKZF3 degradation (Aiolos (IKZF3); [19]): degradation of both IKZF1 and IKZF3 was apparent
IKZF3 degradation (Aiolos (IKZF3); short time points): no degradation of either IKZF1 or IKZF3
fold lower dose than AZD1775 for the same downstream effects [5]: 10 fold
concentration producing reduced pCDK1 Y15, PARP cleavage and γH2Ax ([5]; 24 hr): 100 nM
effect on cell cycle (G2/M proportion) (MOLT4 cells [6]): increased the proportion of MOLT4 cells in G2/M in a time-dependent manner
G2/M accumulation (CRBN−/− MOLT4 cells): absent
G2/M phase accumulation [14]: induced G2/M phase accumulation at lower doses than either ZNL-02-178 or AZD1775
cell cycle changes [7]: neither ZNL-02-096 nor AZD1775 induced significant cell cycle changes
IC50 (MOLT4 cells [8]): 390 nM
shift in IC50, MOLT4 CRBN−/− versus parental cells (MOLT4 CRBN−/− cells): approximately 6 fold
IC50 ([10]; read-out: IC50, PRISM): < 1000 nM
cell death [15]: induced potent cell death
cytotoxicity [16]: little cytotoxicity
concentration of maximal Wee1 degradation (Wee1 [17]): 100 nM
synergy with Olaparib (OVCAR8 cells): synergized with Olaparib

C=CCn1c(=O)c2cnc(Nc3ccc(N4CCN(CCOCCOCCOCCNc5cccc6c5C(=O)N(C5CCC(=O)NC5=O)C6=O)CC4)cc3)nc2n1-c1cccc(C(C)(C)O)n1 (stereo not shown) [ZNL-02-047, 4-((2-(2-(2-(2-(4-(4-((2-Allyl-1-(6-(2-hydroxypropan-2-yl)pyridin-2-yl)-3-oxo-2,3-dihydro-1H-pyrazolo[3,4-d]pyrimidin-6-yl)amino)phenyl)piperazin-1-yl)ethoxy)ethoxy)ethoxy)ethyl)amino)-2-(2,6-dioxopiperidin-3-yl)isoindoline-1,3-dione]
IC50 (Wee1 [9]): 1 to 10 nM
Wee1 degradation (immunoblot, in words) (Wee1 [1]; MOLT4 cells, 5 hr treatment): induced Wee1 degradation
concentration sufficient to degrade Wee1 (Wee1 [1]; MOLT4 cells, 5 hr treatment): 100 nM
